These results are taken from patent publication US20240279602A1, “METHOD FOR PRODUCING CEREBRAL CORTICAL CELL PREPARATION DERIVED FROM HUMAN PLURIPOTENT STEM CELLS” (Kyoto University, priority 2021, published 2024).

The structures appear in SMILES notation.

In test [1] the test system is cerebral organoids. The test is described as follows: RT-qPCR of marker gene expression after DAPT treatment. The class given is cell-based, human. The conditions noted are these: for expression of Hes1: single-cell DAPT method (step (iv)). How it is done:
Total RNA was obtained with an RNeasyMicroKit (QIAGEN), and reverse transcription reaction was performed with a SuperScript III First-Strand Synthesis System ([…]) in accordance with a protocol from the provider. Quantitative PCR was carried out by using TaqMan (TM) Gene Expression Master Mix (Thermo Fisher Scientific Inc.) or SYBR Green Master Mix (Thermo Fisher Scientific Inc.) in accordance with instruction from the manufacturer. The expression levels of genes were normalized to that for GAPDH by using the […] method.
To analyze the influence of the DAPT treatment period on differentiation, cerebral organoids in week 7 of induction of differentiation were treated with 10 μM DAPT for 3 to 7 days according to a method or scheme shown in FIG. 16(A) (organoid DAPT method), and the variation of gene expression was analyzed by RT-qPCR; the results are shown in FIG. 16(B). The ordinate represents relative expression levels to GAPDH.
Furthermore, organoids on Day 25, Day 32, Day 39, and Day 72 (the periods of induction of differentiation: about 4 weeks, 5 weeks, 6 weeks, and 10 weeks, respectively) were cultured in the presence or absence of DAPT for 3 days, and the cerebral organoids on Day 28 (4 wk), Day 35 (5 wk), Day 42 (6 wk), and Day 75 (10 wk) were analyzed for the expression levels of marker genes by RT-qPCR; the results of analysis of the relative expression levels of the markers are shown in FIG. 18. […] For the organoids in week 10, no reduction in expression of Ki67 was found, and no influence was found in expression of Satb2, too.
In the “single-cell DAPT method (DAPT treatment is performed in step (iv))” in FIG. 24(B), cerebral organoids were screened on day 38 after the initiation of induction of differentiation and dispersed into single cells by the method described for step (iii) in Example 4, and the cells were then suspended in a culture medium obtained by adding 10 ng/mL GDNF, 20 ng/mL BDNF, 200 μM ascorbic acid, 400 μM dibutyryl-cAMP, and 30 μM Y-27632 to the culture medium in step (2b) with addition of DAPT at a concentration of 0 μM, 0.1 μM, 1 μM, or 10 μM. Subsequently, the cells were regathered by the method described for step (iv) in Example 4 in the presence of DAPT, and cultured for 1 day, 2 days, or 3 days. Thereafter, the culture medium was switched to a culture medium obtained by adding 10 ng/mL GDNF, 20 ng/mL BDNF, 200 μM ascorbic acid, and 400 μM dibutyryl-cAMP to the culture medium in step (2b), and culture was continued until day 10 after the initiation of reaggregation. The cells on day 3, day 4, or day 10 after the initiation of reaggregation were analyzed by RT-qPCR, and the cells on day 10 were analyzed by flow cytometry; the results are shown in FIGS. 25 to 27.

Test [2] relates to cerebral organoids. The test is described as follows: Single-cell gene expression analysis of Rosettes organoids with or without DAPT. It counts as cell-based, human. Particulars: Rosettes organoids treated with DAPT for 3 days (DAPT+). How it is done:
First, to prepare a single-cell suspension from an organoid, the organoid was separated into single cells with dispersing solution for neural cells (FUJIFILM Wako Pure Chemical Corporation) under recommended conditions. The dispersed cells were resuspended in HBSS supplemented with 10% (v/v) KSR and 10 μM Y-27632 (FUJIFILM Wako Pure Chemical Corporation) at a density of 1,000 cells/μL. Into a Chromium Next GEM Chip G (2000177 10X Genomics, Inc.), approximately 4,670 cells were loaded per channel, and treated with a Chromium controller to acquire Gel Beads-in-Emulsion (GEM). Libraries were produced by using Chromium Next GEM Single Cell 3′ Reagent Kits v3.1 (1000121; 10X Genomics, Inc.) in accordance with a protocol from the manufacturer (CG000204 Rev C). The sequences of the libraries were analyzed with Novaseq 6000 (Illumina, Inc.).
Cell Ranger pipeline was used for mapping of sequences in single-cell RNA-seq. GRCh38 human genome sequences were used as reference genome sequences. UMI count values acquired through analysis with a next-generation sequencer were analyzed by using Seurat R package. First, data of organoids were normalized by a Log-Normalize method, and then all the data of organoids were integrated. […]

[3] abbreviates: cerebral organoids in week 7, 10 μM DAPT for 3 to 7 days (organoid DAPT method).
Where [4] appears, read: organoids in week 4 to week 6, DAPT for 3 days.
Where [5] appears, read: organoids in week 10, DAPT for 3 days.

Turning to `C[C@H](NC(=O)Cc1cc(F)cc(F)c1)C(=O)N[C@H](C(=O)OC(C)(C)C)c1ccccc1` [DAPT, N-[N-(3,5-difluorophenacetyl)-L-alanyl]-S-phenylglycine t-butyl ester], in test [1] (setting [3]), the “expression of Ctip2” value is given as “enhanced as the DAPT treatment period was prolonged”; the “expressions of Pax6, Sox2, and Ki67” value is “declined as the DAPT treatment period was extended”. Besides, in test [1] (setting [4]), the “expression of Ctip2” value is given as “enhanced expression”; the “expression of Pax6 and Ki67” value was “reduced expression”. In addition, in test [1] (setting [5]), the “expression of Ki67” value was “no reduction” and the “expression of Satb2” value is “no influence”. For the same compound, the “expression of Hes1” value in test [1] (10 μM DAPT, 1-day and 2-day treatment, as culture proceeded) was “upregulated again”. Moreover, in test [1] (10 μM DAPT, 3-day treatment), the “expression of Hes1” value is reported as “suppressed over the 10 days”. Further, in test [1] (DAPT 0.1 to 1 μM, 3 days), the “expression of Hes1” value is listed as “not sufficiently suppressed”. Also, in test [2], the “cell population with expression of Pax6 and MKI67” value is “largely shrunk”.
